The source of these data is US9035071B2, “Compounds acting at multiple prostaglandin receptors giving a general anti-inflammatory response” (Allergan, Inc., priority 2011, dated 2015).

Structures are written as SMILES.

Format in all cases: cell-based
The target of assay [1] is T1, human recombinant prostanoid DP1 receptor (Homo sapiens, UniProt Q13258).
T1 construct: expressed in transfected cells; co-transfected with chimeric Gqs-HA
T1 sequence (Q13258 1-359): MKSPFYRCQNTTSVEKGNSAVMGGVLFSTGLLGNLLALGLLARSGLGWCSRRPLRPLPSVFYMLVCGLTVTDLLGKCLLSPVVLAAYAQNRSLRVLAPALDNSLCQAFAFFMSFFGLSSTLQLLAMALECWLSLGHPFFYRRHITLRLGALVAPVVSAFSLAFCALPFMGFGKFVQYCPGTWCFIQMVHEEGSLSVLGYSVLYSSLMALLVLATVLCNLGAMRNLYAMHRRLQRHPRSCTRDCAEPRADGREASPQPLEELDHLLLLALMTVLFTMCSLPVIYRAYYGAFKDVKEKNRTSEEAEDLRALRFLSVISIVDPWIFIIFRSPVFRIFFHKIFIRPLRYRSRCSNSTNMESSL
As to the kind of experiment: FLIPR Ca2+ signaling, PG antagonist activity, DP. Conditions: antagonism of standard agonist BW 245C, HEK-293 EBNA stable cells with chimeric Gqs. The procedure:
(§1) The above compounds were tested for PG antagonist activity as follows using human recombinant prostanoid receptor (DP1, EP1-4, FP, IP and TP) stable cell lines:
(§2) In order to measure the response of Gs and Gi coupled prostanoid receptors as a Ca^2+ signal, chimeric G protein cDNAs were used. Stable cell lines over-expressing human prostanoid DP1, EP1-4, FP, IP, and TP receptors were established as follows:
(§3) Briefly, human prostanoid DP1, EP2, and EP4 receptor cDNAs were co-transfected with chimeric Gqs cDNA containing a haemagglutanin (HA) epitope; human prostanoid EP3 receptors were co-transfected with chimeric Gqi-HA; human EP1, FP, IP, and TP receptor cDNAs were expressed with no exogenous G-proteins. Gqs and Gqi chimeric cDNAs (Molecular Devices, Sunnyvale, Calif., U.S.A.), as well as cDNAs of prostanoid receptors, were cloned into a pCEP4 vector with a hygromycin B selection marker. Transfection into HEK-293 EBNA (Epstein-Barr virus nuclear antigen) cells was achieved by the FuGENE 6 transfection Reagent (Roche Applied Science, Indianapolis, Ind., USA). Stable transfectants were selected according to hygromycin resistance. Because Gqs and Gqi contained an HA epitope, G-protein expression was detected by Western blotting analysis using anti-mouse HA monoclonal antibody and horseradish peroxidase (HRP)-conjugated secondary antibody, while functional expression of prostanoid receptors was detected by FLIPR screening (Matias et al., 2004). These stable cell lines were validated using previously published antagonists at 10 μM against serial dilutions of standard agonists by FLIPR functional assays for Ca^2− Signaling (as described below).
(§4) Ca^2+ signaling studies were performed using a FLIPR TETRA system (Molecular Devices, Sunnyvale, Calif., USA) in the 384-format. This is a high-throughput instrument for cell-based assays to monitor Ca^2+ signaling associated with GPCRs and ion channels. Cells were seeded at a density of 5×10^4 cells/well in BioCoat poly-D-lysine coated, black wall, clear bottom 384-well plates (BD Biosciences, Franklin lakes, N.J., USA) and allowed to attach overnight in an incubator at 37° C. The cells were then washed twice with HBSS-HEPES buffer (Hanks' balanced salt solution without bicarbonate and phenol red, 20 mM HEPES, pH 7.4) using an ELx405 Select CW Microplate Washer (BioTek, Winooski, Vt., USA). After 60 min of dye-loading in the dark using the Ca^2+-sensitive dye Fluo-4AM (Invitrogen, Carlsbad, Calif., USA), at a final concentration of 2×10^−6M, the plates were washed 4 times with HBSS-HEPES buffer to remove excess dye and leaving 50 μl of buffer in each well. The plates were then placed in the FLIPR TETRA instrument and allowed to equilibrate at 37° C. AGN-211377 was added in a 25 μl volume to each well to give final concentrations of 0.1 μM, 0.3 μM, 1 μM, 3 μM, 10 μM, and 30 μM; or 0.067 μM, 0.1 μM, 0.2 μM, 0.3 μM, 0.67 μM, and 1 μM for cells over-expressing TP receptors. After 4.5 minutes, a 7-point serial dilution of the standard agonist for the corresponding receptor, in a 25 μl volume was injected at the final concentrations from 10^−11M to 10^−5M in 10-fold serial dilution increments for cells expressing human recombinant DP1, EP1, EP2, EP3, EP4, FP, and IP receptors. The dose range for the standard agonist for human recombinant TP receptors was from 10^−12M to 10^−6M. HBSS-HEPES buffer was used as the negative control for the standard agonists. Cells were excited with LED (light emitting diode) excitation at 470-495 nm and emission was measured through an emission filter at 515-575 nm. Assay plates were read for 3.5 minutes using the FLIPR^TETRA. The peak increase in fluorescence intensity was recorded for each well. On each plate, negative controls, dose response of positive controls, and co-treatments of antagonist-agonist for each dose were in triplicates. Standard agonists were as follows: DP=BW 245C, EP1-EP4=PGE2, FP=17-phenyl-PGF2α, IP=Cicaprost, and TP=U-46619. […]

The target in assay [2] is T2, human recombinant prostanoid EP2 receptor (Homo sapiens, UniProt P43116).
T2 construct: expressed in transfected cells; co-transfected with chimeric Gqs-HA
T2 sequence (P43116 whole entry): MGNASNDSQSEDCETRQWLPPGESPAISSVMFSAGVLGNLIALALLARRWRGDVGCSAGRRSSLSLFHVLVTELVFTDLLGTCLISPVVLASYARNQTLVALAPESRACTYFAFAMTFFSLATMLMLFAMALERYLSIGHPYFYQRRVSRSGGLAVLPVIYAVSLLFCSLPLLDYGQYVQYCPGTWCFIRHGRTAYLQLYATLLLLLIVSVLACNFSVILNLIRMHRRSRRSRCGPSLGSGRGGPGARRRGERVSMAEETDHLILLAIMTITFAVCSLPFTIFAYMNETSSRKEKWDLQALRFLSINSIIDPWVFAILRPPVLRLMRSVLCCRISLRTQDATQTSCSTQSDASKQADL
Nature of the assay: FLIPR Ca2+ signaling, PG antagonist activity, EP2. The note with it: antagonism of standard agonist PGE2, HEK-293 EBNA stable cells with chimeric Gqs. The procedure:
as §1, §2, §3, §4

In assay [3] the target is T3, human recombinant prostanoid EP3 receptor (Homo sapiens, UniProt P43115).
T3 construct: expressed in transfected cells; co-transfected with chimeric Gqi-HA
T3 sequence (P43115 1-390): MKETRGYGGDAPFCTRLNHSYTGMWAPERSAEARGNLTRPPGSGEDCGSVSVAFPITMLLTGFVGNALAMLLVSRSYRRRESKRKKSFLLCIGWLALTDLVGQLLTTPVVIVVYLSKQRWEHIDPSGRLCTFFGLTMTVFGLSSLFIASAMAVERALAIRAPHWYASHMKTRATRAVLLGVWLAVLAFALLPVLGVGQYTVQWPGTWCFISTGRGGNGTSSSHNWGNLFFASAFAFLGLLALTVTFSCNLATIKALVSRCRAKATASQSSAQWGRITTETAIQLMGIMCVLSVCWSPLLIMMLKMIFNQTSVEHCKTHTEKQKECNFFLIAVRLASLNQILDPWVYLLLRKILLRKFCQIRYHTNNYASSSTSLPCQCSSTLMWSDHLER
As to the kind of experiment: FLIPR Ca2+ signaling, PG antagonist activity, EP3. Conditions: antagonism of standard agonist PGE2, HEK-293 EBNA stable cells with chimeric Gqi. The procedure: as §1, §2, §3, §4

With `CCC(CC)COc1ccc(Br)cc1Cn1ncc(CC(=O)O)c1C` [Example 1, {1-[5-bromo-2-(2-ethyl-butoxy)-benzyl]-5-methyl-1H-pyrazol-4-yl}-acetic acid], the Kb in assay [1] was 0.4 µM; in assay [2] it was ≥ 10 µM; in assay [3], ≥ 10 µM.

On to `CCC(CC)COc1ccc(Br)cc1Cn1ncc(C(=O)O)c1C` [Example 2, 1-[5-bromo-2-(2-ethyl-butoxy)-benzyl]-5-methyl-1H-pyrazole-4-carboxylic acid], for which the values for the Kb in assay [1], in assay [2] and in assay [3] were 0.6 µM, ≥ 10 µM and 6.1 µM, respectively.

In the case of `CCC(CC)COc1ccc(Br)cc1Cn1cc(C(=O)O)c(C)n1` [Example 3], the antagonist equilibrium constant (Kb) in assay [1] was 1.1 µM; in assay [2], ≥ 10 µM; in assay [3] it was ≥ 10 µM.

Take `CCC(CC)COc1ccc(Cl)cc1Cn1cc(C(=O)O)cn1` [Example 4, 1-[5-chloro-2-(2-ethyl-butoxy)-benzyl]-1H-pyrazole-4-carboxylic acid]: the Kb was 1.4 µM in assay [1], ≥ 10 µM in assay [2] and ≥ 10 µM in assay [3].

For `CCC(CC)COc1ccc(Cl)cc1Cn1nc(C)c(C(=O)O)c1C` [Example 5, 1-[5-chloro-2-(2-ethyl-butoxy)-benzyl]-3,5-dimethyl-1H-pyrazole-4-carboxylic acid], the values for the Kb in assay [1], in assay [2] and in assay [3] were 0.35 µM, ≥ 10 µM and ≥ 10 µM, respectively.

For the compound `CCCc1nn(Cc2cc(Cl)ccc2OCC(CC)CC)cc1C(=O)O` [Example 6, 1-[5-chloro-2-(2-ethyl-butoxy)-benzyl]-3-propyl-1H-pyrazole-4-carboxylic acid], the Kb in assay [1] was 5.6 µM; in assay [2], 8.6 µM; in assay [3] it was ≥ 10 µM.

On to `CCCc1c(C(=O)O)cnn1Cc1cc(Cl)ccc1OCC(CC)CC` [Example 7, 1-[5-chloro-2-(2-ethyl-butoxy)-benzyl]-5-propyl-1H-pyrazole-4-carboxylic acid], for which the Kb in assay [1], in assay [2] and in assay [3] was ≥ 10 µM throughout.

Take `CCC(CC)COc1ccc(C(F)(F)F)cc1Cn1ncc(C(=O)O)c1C` [Example 8, 1-[2-(2-ethyl-butoxy)-5-trifluoromethyl-benzyl]-5-methyl-1H-pyrazole-4-carboxylic acid]: the results for the Kb in assay [1], in assay [2] and in assay [3] were 1.4 µM, ≥ 10 µM and ≥ 10 µM, respectively.

For `CCC(CC)COc1ccc(C(F)(F)F)cc1Cn1cc(C(=O)O)c(C)n1` [Example 9, 1-[2-(2-ethyl-butoxy)-5-trifluoromethyl-benzyl]-3-methyl-1H-pyrazole-4-carboxylic acid], the Kb in assay [1] was 3.9 µM; in assay [2], ≥ 10 µM; in assay [3], ≥ 10 µM.

Take `CCC(CC)COc1ccc(Cl)cc1Cn1ncc(C(=O)O)c1C` [Example 10, 1-[5-chloro-2-(2-ethyl-butoxy)-benzyl]-5-methyl-1H-pyrazole-4-carboxylic acid]: the Kb is 0.94 µM in assay [1], ≥ 10 µM in assay [2] and 3.9 µM in assay [3].

For `Cc1c(C(=O)O)cnn1Cc1cc(Cl)ccc1OCC(C)C` [Example 11, 1-(5-chloro-2-isobutoxy-benzyl)-5-methyl-1-pyrazole-4-carboxylic acid], the Kb in assay [1] was 4.55 µM; in assay [2], ≥ 10 µM; in assay [3], ≥ 10 µM.

On to `Cc1c(C(=O)O)cnn1Cc1cc(Cl)ccc1OCC1CCCC1` [Example 12, 1-(5-chloro-2-cyclopentylmethoxy-benzyl)-5-methyl-1H-pyrazole-4-carboxylic acid], for which the Kb is 2.5 µM in assay [1], ≥ 10 µM in assay [2] and ≥ 10 µM in assay [3].

As to `Cc1c(C(=O)O)cnn1Cc1cc(Br)ccc1OCC(C)C` [Example 13, 1-(5-bromo-2-isobutoxy-benzyl)-5-methyl-1H-pyrazole-4-carboxylic acid], the Kb is 3.5 µM in assay [1], ≥ 10 µM in assay [2] and ≥ 10 µM in assay [3].

Consider `Cc1c(C(=O)O)cnn1Cc1cc(Br)ccc1OCC(C)(C)C` [Example 14, 1-[5-bromo-2-(2,2-dimethyl-propoxy)-benzyl]-5-methyl-1H-pyrazole-4-carboxylic acid], for which the Kb in assay [1] is 3.4 µM; in assay [2], ≥ 10 µM; in assay [3], ≥ 10 µM.

As for `CCC(CC)COc1ccc(OC(F)(F)F)cc1Cn1ncc(C(=O)O)c1C` [Example 15, 1-[2-(2-ethyl-butoxy)-5-trifluoromethoxy-benzyl]-5-methyl-1H-pyrazole-4-carboxylic acid], the values for the Kb in assay [1], in assay [2] and in assay [3] were 0.78 µM, ≥ 10 µM and ≥ 10 µM, respectively.

For `CCC(CC)COc1ccc(Br)cc1Cn1ncc(C(=O)O)c1N` [Example 16, 5-amino-1-[5-bromo-2-(2-ethyl-butoxy)-benzyl]-1H-pyrazole-4-carboxylic acid], the values for the Kb in assay [1], in assay [2] and in assay [3] were 1.6 µM, ≥ 10 µM and ≥ 10 µM, respectively.

The Kb is the equilibrium dissociation constant of an antagonist, usually derived from a functional assay.
